From US20230233736A1, “ANTIMICROBIAL FORMULATIONS COMPRISING SILICONE” (AMICOAT AS, priority 2020, published 2023)
In brackets after ≈: the same amount, converted by molar mass.

Key:
[1] = system: Candida tropicalis; test: MIC microbroth dilution (CLSI); type: cell-based; conditions: ATCC750 - reference strain
[2] = system: Trichophyton mentagrophytes; test: MIC microbroth dilution (CLSI); type: cell-based; conditions: G.R. Micro collection
[3] = system: Cryptococcus neoformans; test: MIC microbroth dilution (CLSI); type: cell-based; conditions: G.R. Micro collection
[4] = system: Enterococcus gallinarum; test: MIC microbroth dilution (CLSI); type: cell-based; conditions: vancomycin-resistant (VanC) clinical isolate
Text: (§1) Cation-adjusted Mueller-Hinton broth (Oxoid Ltd., Basingstoke, UK and Trek Diagnostic Systems Ltd., East Grinstead, UK) (supplemented with 5% laked horse blood for Streptococcus spp., Corynebacterium jeikeium and Listeria monocytogenes) was used for aerobic bacteria, with an initial inoculum of approximately 10^5 colony-forming units (CFU)/m L.

[5] = system: Staphylococcus saprophyticus; test: MIC microbroth dilution (CLSI); type: cell-based; conditions: antibiotic susceptible clinical isolate
Text: as §1

[6] = system: Enterococcus faecalis; type: cell-based; conditions: vancomycin-resistant (VanB) clinical isolate
Text: as §1
(§2) To evaluate whether freezing affected the activity of the peptides some MIC determinations were repeated using plates containing freshly-prepared Mueller-Hinton broth.

[7] = system: Corynebacterium jeikeium; type: cell-based
Text: as §1

[8] = system: Staphylococcus epidermidis; type: cell-based
Text: as §1

[9] = system: Staphylococcus haemolyticus; type: cell-based
Text: as §1

[10] = system: C. albicans; test: Antimicrobial assay, Table 5; type: cell-based
[11] = system: S. pyogenes; test: Antimicrobial assay, Table 5; type: cell-based
[12] = system: E. coli; test: Antimicrobial assay, Table 5; type: cell-based
[13] = system: P. aeruginosa; test: Antimicrobial assay, Table 5; type: cell-based
[14] = system: Staphylococcus aureus FDA486; test: Murine skin infection model, topical treatment; type: in vivo, mice
Experimental: (§3) The skin of mice was infected with Staphylococcus aureus or Streptococcus pyogenes and subsequently given a total of three treatments at three hourly intervals. Three hours after the last treatment, skin biopsies were collected and the number of colony forming units (CFUs) present in the skin sample was determined. Results are shown in FIGS. 1 and 2, expressed as the number of colony forming units per mouse.
In experiment 1 (FIG. 1), compound 2 was applied to the murine skin as part of either a cream or a gel containing 2% (w/w) of compound 2. The same cream or gel without compound 2 was used as a negative control (placebo).
as §3, with “3, 4” for “1”, “5” for “2,”
In experiment 1 (FIG. 3), compound 7 was applied to the murine skin as part of either a cream or a gel containing 2% (w/w) of compound 7. The same cream or gel without compound 7 was used as a negative control (placebo). Bactroban 2% cream was used as a positive control.
In experiment 3 (FIG. 5), compound 8 was applied in a 2% cream formulation on a Staphylococcus aureus FDA 486 infection in the murine skin infection model. A placebo cream and two known antibacterials, “Fucidin (fucidic acid) ointment 2%” and “Bactroban (mupericin) cream 2%” were used as controls.

[15] = system: Streptococcus pyogenes; test: Murine skin infection model, topical treatment; type: in vivo, mice; conditions: FIG. 4, Streptococcus pyogenes CS 301
Experimental: as §3
In experiment 2 (FIG. 2), compound 2 was applied in two different concentrations, as either a 1% or a 2% gel. A placebo gel and a known antibacterial “bactroban” were used as controls.
as §3, with “3, 4” for “1”, “5” for “2,”
In experiment 2 (FIG. 4), compound 7 was applied in two different concentrations, as either a 1% or a 2% gel. A placebo gel and a known antibacterial “bactroban (mupericin)” were used as controls.

[16] = system: Candida (Issatchenkia) krusei
[17] = system: Clostridium perfringens; conditions: antibiotic-susceptible clinical isolate
[18] = system: Staphylococcus aureus, strain ATCC 25923; conditions: Table 5; strain ATCC 25923
[19] = system: Methicillin resistant Staphylococcus aureus (MRSA) strain ATCC 33591; conditions: Table 5; strain ATCC 33591
[20] = system: Methicillin resistant Staphylococcus epidermidis (MRSE) strain ATCC 27626; conditions: Table 5; strain ATCC 27626
[21] = system: Aspergillus niger; test: MIC microbroth dilution (CLSI); type: cell-based; conditions: G.R. Micro collection
[22] = system: Trichophyton interdigitale; test: MIC microbroth dilution (CLSI); type: cell-based; conditions: G.R. Micro collection
[23] = system: Microsporum canis; test: MIC microbroth dilution (CLSI); type: cell-based; conditions: G.R. Micro collection
[24] = system: Listeria monocytogenes; test: MIC microbroth dilution (CLSI); type: cell-based; conditions: antibiotic-susceptible clinical isolate
Text: as §1

[25] = system: Salmonella sp; test: MIC microbroth dilution (CLSI); type: cell-based
Text: as §1

[26] = system: Shigella sp; test: MIC microbroth dilution (CLSI); type: cell-based; conditions: antibiotic-susceptible clinical isolate
Text: as §1

[27] = system: Stenotrophomonas maltophilia; test: MIC microbroth dilution (CLSI); type: cell-based; conditions: antibiotic-susceptible clinical isolate
Text: as §1

[28] = system: Staphylococcus aureus; type: cell-based
Text: as §1, §2

[29] = system: Enterobacter sp; type: cell-based
Text: as §1

[30] = system: Enterococcus faecium; type: cell-based
Text: as §1

[31] = system: Group G Streptococcus; type: cell-based
Text: as §1

[32] = system: Klebsiella aerogenes; type: cell-based
Text: as §1

[33] = system: Morganella morganii; type: cell-based
Text: as §1

[34] = system: Streptococcus agalactiae; type: cell-based
Text: as §1

[35] = system: Streptococcus pyogenes; type: cell-based
Text: as §1

[36] = system: Propionibacterium acnes; test: MIC microbroth dilution (CLSI); type: cell-based
Experimental: Supplemented Brucella broth (SBB) was used for the anaerobic strains with an inoculum of approximately 10^6 CFU/mL. SBB is a broth consisting of 1% peptone, 0.5% ‘Lab-lemco’, 1% glucose and 0.5% sodium chloride supplemented with 5 μg/L haemin and 1 μg/L vitamin K (both obtained from Sigma Aldrich Ltd.) Yeast and filamentous fungal MIC were performed in MOPS buffered RPMI 1640 medium (MOPS buffer obtained from Sigma Aldrich Ltd., RPMI 1640 obtained from Invitrogen Ltd, Paisley, Scotland). The yeast inocula were in the range 7.5×10^2-4×10^3 CFU/mL and the filamentous fungi approximately 8×10^3-1×10^5 CFU/mL
MICs were determined as described in Example 2.

[37] = system: Candida parapsilosis
[38] = antibiotic-susceptible clinical isolate

CC(C)NC(=O)[C@H](CCCNC(=N)N)NC(=O)[C@H](Cc1c(C(C)(C)C)[nH]c2c(C(C)(C)C)cc(C(C)(C)C)cc12)NC(=O)[C@@H](N)CCCNC(=N)N [Compound 7] showed an MIC [1] of 4 µg/mL (≈ 5.51 µM), an MIC [2] of 8 µg/mL (≈ 11 µM) and an MIC [3] of 8 µg/mL (≈ 11 µM). It also gave an MIC [4] of 8 µg/mL (≈ 11 µM), an MIC [5] of 2 µg/mL (≈ 2.75 µM) and an MIC [6] of no less than 128 µg/mL. For the same compound, the MIC [7] was 8 µg/mL (≈ 11 µM), the MIC [8] was 4 µg/mL (≈ 5.51 µM) and the MIC [9] was 4 µg/mL (≈ 5.51 µM). The C. albicans [10] was 25 mg/L, the S. pyogenes [11] was less than 2 mg/L and the E. coli [12] was 7 mg/L. For the same compound, the P. aeruginosa [13] was 7 mg/L, the “number of colony forming units (CFU) in skin biopsy” value (from here on “number of colony forming units”) ([14]; FIG. 3, cream or gel 2% (w/w), three treatments, compared to placebo) was “number of CFUs was reduced” and the “number of CFUs, 2% gel compared with 1% gel” value [15] was “more effective than the gel containing only 1% of compound 7”. The “number of colony forming units” value ([15]; 1% or 2% gel) was “more effective at reducing the number of CFUs from a Streptococcus pyogenes CS 301 infection than the placebo gel or the bactroban”, the MIC [16] was 8 µg/mL (≈ 11 µM) and the MIC [17] was no less than 128 µg/mL. The S. aureus [18] was less than 2 mg/L, the MRSA [19] was less than 2 mg/L and the MRSE [20] was less than 2 mg/L.
CCCCCCNC(=O)[C@H](CCCNC(=N)N)NC(=O)[C@H](Cc1c(C(C)(C)C)[nH]c2c(C(C)(C)C)cc(C(C)(C)C)cc12)NC(=O)[C@@H](N)CCCNC(=N)N [Compound 8] gave an MIC [1] of 4 µg/mL (≈ 5.21 µM), an MIC [21] of 4 µg/mL (≈ 5.21 µM) and an MIC [2] of 4 µg/mL (≈ 5.21 µM). It also gave an MIC [22] of 4 µg/mL (≈ 5.21 µM), an MIC [23] of 4 µg/mL (≈ 5.21 µM) and an MIC [3] of 2 µg/mL (≈ 2.6 µM). The MIC [4] was 4 µg/mL (≈ 5.21 µM), the MIC [24] was 8 µg/mL (≈ 10.4 µM) and the MIC [25, 38] was 8 µg/mL (≈ 10.4 µM). For the same compound, the MIC ([25]; multi-drug resistant clinical isolate) was 8 µg/mL (≈ 10.4 µM), the MIC [26] was 4 µg/mL (≈ 5.21 µM) and the MIC [5] was 0.5 µg/mL (≈ 0.651 µM). It also gave an MIC [27] of 4 µg/mL (≈ 5.21 µM), an MIC [28] of 4 µg/mL (≈ 5.21 µM) and an MIC [29] of 8 µg/mL (≈ 10.4 µM). For the same compound, the MIC [30] was 4 µg/mL (≈ 5.21 µM), the MIC [31] was 8 µg/mL (≈ 10.4 µM) and the MIC [32] was 8 µg/mL (≈ 10.4 µM). The MIC [33] was 8 µg/mL (≈ 10.4 µM), the MIC [9] was 4 µg/mL (≈ 5.21 µM) and the MIC [34] was 8 µg/mL (≈ 10.4 µM). For the same compound, the MIC [35] was 8 µg/mL (≈ 10.4 µM), the MIC ([36]; antibiotic-resistant clinical isolate) was 2 µg/mL (≈ 2.6 µM) and the MIC [36, 38] was 4 µg/mL (≈ 5.21 µM). For the same compound, the C. albicans [10] was 5 mg/L, the S. pyogenes [11] was 2 mg/L and the E. coli [12] was 5 mg/L. For the same compound, the P. aeruginosa [13] was 5 mg/L, the “number of colony forming units” value ([14]; FIG. 5, 2% cream formulation) was “more effective at reducing the number of CFUs than the placebo and fucidin or bactroban” and the MIC [37] was 8 µg/mL (≈ 10.4 µM). The S. aureus [18] was 2 mg/L, the MRSA [19] was 2 mg/L and the MRSE [20] was less than 1 mg/L.
